Assay results: the METLIN SMRT retention time set (Domingo-Almenara et al. 2019)

Assay: gradient 5% acetonitrile 3 min, to 50% in 2 min, to 85% in 15 min, held 3 min, 100 µL/min
Settings: column: Zorbax Extend-C18 2.1 x 50 mm; eluents: water / acetonitrile, 0.1% formic acid
Procedure, shortened: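 Standards, all pure, were combined into mixtures of ~100 molecules and run at 100 μL/min on a Zorbax Extend-C18 column (2.1 × 50 mm, 1.8 μm) with water and acetonitrile, each containing 0.1% formic acid. A coupled quadrupole time-of-flight mass spectrometer operated in positive and negative ionization mode. Retention time values come from computationally picked adduct peaks, each inspected manually.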

| SMILES | RP-LC retention time [s] |
| --- | --- |
| CCCN1CCN(CCCNC(=O)CN2C(=O)CCn3nc(-c4cn(C)c5ccccc45)cc32)CC1 | 589 |
| Cc1nc(C2CCN(C(=O)CCc3c[nH]c4ccccc34)CC2)n[nH]1 | 603 |
| CCOc1ccc(NC(=O)C2CCN(S(=O)(=O)c3cc(-c4noc(C)n4)cs3)CC2)cc1 | 917 |
| OCCN1CCN(CC(O)COCc2ccc(Cl)cc2)CC1 (configuration not stated) | 530 |
| CCCCN(C)C(=O)Cn1c(CNC(=O)c2ccco2)nc2ccccc21 | 629 |
| O=S(=O)(Nc1cccn2c(C3CCC3)nnc12)c1cccc2cccnc12 | 749 |
| CC(C)Cn1c(=O)c2sccc2n2c(CCC(=O)NCc3cc(F)ccc3F)nnc12 | 622 |
| CCc1nnc(-c2ccc3ccn(CC(=O)N4CCN(c5ccc(Cl)cc5)CC4)c3c2)o1 | 965 |
| CC(C)NC(=O)c1nc(-c2cn(-c3cccc(F)c3)nn2)no1 | 834 |
| COc1ccc(N2CC(c3nc(-c4ccc(C)cc4)no3)CC2=O)c(OC)c1 (configuration not stated) | 888 |
| CC1=C(c2ccccc2)S(=O)(=O)N=C1N1CCCN(C(=O)c2ccoc2)CC1 | 728 |
| CCC(C)(C)C(=O)N1CCCC1Cc1noc(-c2cccnc2)n1 (configuration not stated) | 839 |
| CCN1C(=O)c2cccnc2Sc2cc(NC(=O)Cc3c(F)cccc3Cl)ccc21 | 870 |
| CCOc1ccc2c(c1)SC(CC(=O)Nc1ccccc1[N+](=O)[O-])C(=O)N2 (configuration not stated) | 822 |
| Cc1ccc(Nc2c(-c3ccc(O)cc3)nc3ncccn23)cc1Cl | 690 |
| Cc1ccc(Nc2c(-c3cccc(O)c3)nc3cnccn23)cc1Br | 834 |
| O=C(Cc1nc(-c2ccccn2)n[nH]1)Nc1ccccc1 | 596 |
| O=C(CC1CCCN(c2cn[nH]c(=O)c2)C1)N1CCC2(CC1)OCCO2 (configuration not stated) | 604 |
| Cc1cc(C)c(S(=O)(=O)N2CCn3c(nn(CC4CC4)c3=O)C2)c(C)c1 | 870 |
| COCCOC(=O)C1=C(C)NC2=C(C(=O)C(C(=O)OC)C(C)C2)C1c1cccc(F)c1 (configuration not stated) | 832 |
| O=C(Cn1cnc2nc(N3CCCC(C(=O)NC4CC4)C3)sc2c1=O)NC1CCCCC1 (configuration not stated) | 652 |
| O=C(Cn1c(=O)cc(-c2nc(C3CC3)no2)c2ccccc21)Nc1ccccc1 | 937 |

| SMILES | RP-LC retention time [s] |
| --- | --- |
| CC1Oc2ccc(S(=O)(=O)N3CCC(C(=O)NCc4ccc5c(c4)OCO5)CC3)cc2NC1=O (configuration not stated) | 755 |
| COc1cccc(NC(=O)N2CCc3c(c(-c4nnc(-c5ccc(F)cc5)o4)nn3C)C2)c1 | 833 |
| COc1cccc(NC(=O)Nc2nccn(-c3ccc(F)cc3)c2=O)c1 | 898 |
| CC(C)NCC(O)c1ccc(N)c(C#N)c1 (configuration not stated) | 563 |
| Cc1cc2c(N3CCCC(C(=O)NCc4ccc(F)cc4F)C3)nccc2s1 (configuration not stated) | 700 |
| COc1ccc(NC(=O)Nc2cc(-c3cn4cccnc4n3)ccc2C)cc1 | 590 |
| CCc1noc(-c2ccc(-n3cnc(C(=O)N4CCc5ccccc5C4)c3)nc2)n1 | 924 |
| Cc1sc(NC(=O)c2ccc3c(c2)OCO3)nc1-c1ccc2c(c1)N(C)C(=O)CO2 | 823 |
| N#Cc1cccc(N2C=C(C(=O)N3CCCC3)S(=O)(=O)c3ccc(F)cc32)c1 | 752 |
| COc1ccc(CN2CC(C(=O)N3CCN(c4cc(=O)n(C)c(=O)n4C)CC3)CC2=O)cc1 (configuration not stated) | 630 |
| COc1ccc(CN2CCC([C@@H]3CNC[C@H]3CO)CC2)cc1Cn1ccnc1 | 572 |
| CC(=O)c1cccc(NC(=O)CN2C(=O)C3CCCCN3c3ccc(C(=O)N4CCCC4)cc32)c1 (configuration not stated) | 780 |
| O=C(NCC1CCCO1)N1CCc2[nH]nc(-c3ccccc3)c2C1 (configuration not stated) | 644 |
| CCc1ccccc1S(=O)(=O)N(C)CC1CCOC1 (configuration not stated) | 850 |
| Cc1cc(NC(=O)Cn2ccn3nc(-c4ccccc4)c(CO)c3c2=O)n[nH]1 | 644 |
| Cc1cccc(OCc2nc(C)c(C(=O)Nc3nc(-c4ccc(Cl)cc4)cs3)s2)c1 | 1360 |
| COc1ccc(NC(=O)C2CCN(S(=O)(=O)c3cc(C(=O)N(C)C)cs3)CC2)cc1 | 730 |
| CC(C)S(=O)(=O)c1ccc(CC(=O)N2CCC(c3nnc(-c4ccco4)o3)CC2)cc1 | 669 |
| CC1(C)CC(=O)C2=C(C1)N=C1SCCC(=O)N1C2c1ccc(Cl)cc1 (configuration not stated) | 877 |
| COc1ccc(-n2nc(N3CCCC(C(=O)NCc4ccco4)C3)ccc2=O)cc1 (configuration not stated) | 740 |
| CCCN(CC1CCOC1)C(=O)Nc1ccccc1Br (configuration not stated) | 832 |
| Cc1ccccc1-n1c(-c2ccc(Cl)cc2)cn2c3c(=O)n(C)c(=O)n(C)c3nc12 | 1020 |

| SMILES | RP-LC retention time [s] |
| --- | --- |
| CCS(=O)(=O)c1cccc(-c2cc(C(=O)NC3CCN(C)CC3)c(C)c3[nH]c4ncc(C)cc4c23)c1 | 645 |
| COc1cccc(C(=O)NC2CCN(c3cc(-c4cccs4)[nH]n3)C2)c1 (configuration not stated) | 700 |
| CCn1cc(-c2nc(CC(=O)N3CCN(c4ccccc4F)CC3)cs2)c2cccnc21 | 976 |
| O=C(Cc1ccccc1Cl)NCC(O)c1ccc(C(F)(F)F)cc1 (configuration not stated) | 806 |
| CCn1cnc(S(=O)(=O)N2CCCC(C(=O)Nc3ccccc3)C2)c1 (configuration not stated) | 726 |
| O=C(O)c1ccccc1Nc1cccc2c1C(=O)c1cccc(Nc3ccccc3C(=O)O)c1C2=O | 1020 |
| Cn1nccc1C(=O)N1CCC(c2nncn2Cc2ccccc2)CC1 | 624 |
| Cc1nc(-c2cccc(NC(=O)Cc3csc(Nc4ncccn4)n3)c2)cs1 | 731 |
| CCN1C(=O)c2cccnc2Sc2cc(NC(=O)c3ccccn3)ccc21 | 802 |
| Cc1ccccc1CN1C(=O)N(c2cccc(F)c2)c2ncccc2S1(=O)=O | 1090 |
| O=C(Nc1cnc(-c2cccc(Cl)c2)nc1)C1CCC1 | 1020 |
| Cn1cccc1CN(C(=O)COc1ccc(Cl)cc1Cl)C1CC1 | 1040 |
| CCn1c(=O)c(N2CCCC(C(=O)N3CCN(c4cccc(C)c4C)CC3)C2)nc2ccccc21 (configuration not stated) | 1350 |
| CCCC(=O)Nc1ccc2c(c1)CN(C(=O)Cc1ccc(C)cc1)C(C(=O)N(C)C)C2 (configuration not stated) | 748 |
| CCC(=O)N1CCc2cc(N3CC(C(=O)Nc4ccc(OC)c(Cl)c4)CC3=O)ccc21 (configuration not stated) | 779 |
| Cc1nc(CNC(=O)C2CCN(C(=O)Nc3ccc(C)c(Cl)c3)CC2)cs1 | 714 |
| CC(C)N1CCn2cc(S(=O)(=O)Nc3ccc(C#N)cc3)cc2C1=O | 719 |
| O=C(CSc1nnc2c3sc(N4CCCC4)nc3ncn12)Nc1ccc2c(c1)OCCO2 | 758 |
| CC(C)OC(=O)Cn1nc(-c2nc(-c3cccc(Cl)c3)no2)ccc1=O | 1100 |
| Cc1cn(C)nc1C(=O)Nc1nc2ccc(S(C)(=O)=O)cc2s1 | 699 |
| O=S(=O)(Cc1cccc(F)c1)NCC1CCN(Cc2ccsc2)CC1 | 578 |
| COc1ccccc1CNc1ncnc(N)c1[N+](=O)[O-] | 735 |

| SMILES | RP-LC retention time [s] |
| --- | --- |
| Cc1cccc(-c2nc3ccccn3c2NC(=O)NCc2cccc(F)c2)c1 | 669 |
| CCOC(=O)c1noc2ncnc(Nc3cccc(F)c3)c12 | 616 |
| N#Cc1ccc(C(=O)N2CCC(c3cc(N)on3)CC2)cc1 | 641 |
| Cc1ccc2nc(CN(C)Cc3ccc(Cl)cc3)cc(=O)n2c1 | 627 |
| CCn1cc(-c2nc(C(=O)NCc3ccc(F)c(Cl)c3)cs2)c2cccnc21 | 1050 |
| Cc1ccc(C)c(C(=O)NC(c2ccccc2)c2nnc(N3CCCC3)o2)c1 (configuration not stated) | 841 |
| O=C(Nc1ccc2c(c1)OCO2)C(=O)c1ccc[nH]1 | 802 |
| CCc1cccc(NC(=O)Nc2cnn(-c3ncc(N(C)C)cn3)c2)c1 | 772 |
| COc1ccc2c(c1)C1(CCN(S(=O)(=O)c3ccccc3)C1)C(=O)N2 (configuration not stated) | 771 |
| O=C(CCc1nc2cccnc2n1Cc1cccs1)NCCc1c[nH]c2ccccc12 | 752 |
| Cc1noc(C)c1S(=O)(=O)N1CCc2c(c(-c3nnc(-c4ccccc4)o3)nn2C)C1 | 880 |
| Cc1cccc(-n2cc(C(=O)OCc3ccncc3)c3ccccc3c2=O)c1 | 743 |
| O=C(Cc1ccccc1)N1CCN(c2nc3cccnc3o2)CC1 | 686 |
| CCSc1nnc(-c2nn(C)c3c2CN(C(=O)c2c(F)cccc2Cl)CC3)n1C | 768 |
| c1ccc([C@@H]2CN(Cc3ccncc3)C[C@H]2COc2cccnc2)nc1 | 516 |
| CCCC(=O)Nc1ccc2c(c1)CN(C(=O)c1ccc(F)c(F)c1)C(C(=O)N(C)C)C2 (configuration not stated) | 736 |
| COCCc1nc(C2CCCN(C(=O)c3sccc3C)C2)n[nH]1 (configuration not stated) | 590 |
| COC(=O)c1cc(S(=O)(=O)N2CCCC2C(=O)Nc2ccc(F)cc2)cn1C (configuration not stated) | 830 |
| CCOc1ccc(-c2cc3c(=O)n(Cc4nc(-c5ccc(Cl)c(F)c5)no4)ncn3n2)cc1 | 1270 |
| CCNc1cc(N2CCCC(CCC(=O)N3CCN(C(=O)c4ccco4)CC3)C2)ncn1 (configuration not stated) | 610 |
| Cc1noc([C@@H]2CN(S(=O)(=O)c3c(C)noc3C)C[C@H]2C(N)=O)n1 | 667 |
